According to patent publication US9259401B2 (priority 2011, dated 2016):

What was measured:
Male Laca mice = experiment: Porsolt Forced Swim test (behavioural despair test); format: in vivo
Protocol: Method: Porsolt Forced Swim test (also called behavioural despair test)
Animals are subjected to two trials during which they are force to swim in an acrylic glass cylinder filled with water and from which they cannot escape. The first trial lasts 15 minutes. Then, after 24-hours, a second trial is performed which lasts 5 minutes. The time that the animal spends without moving in the second trial is measured. This immobility time is decreased by antidepressants.
After some time, the mice give up the attempt to escape from the water and subside into immobility. The duration of the immobility is measured. An animal was considered to be immobile whenever it remained floating passively in the water in a slightly hunched but upright position, its nose above the water surface. […] The total immobility period during the 6-min test was recorded with the help of stopwatch.
The immobility period data obtained from tables 1, 2 and 3 is plotted against the dose administered in FIG. 1, FIG. 2 and FIG. 3 respectively, as shown in the drawing accompanying this specification.
Test Procedures: Porsolt Forced Swim test. Rectangular glass jar (25×12×25 cm^3) containing 15 cm of water maintained at 24±1° C.
The immobility period data obtained from Tables 4, 5, 6 and 7 is plotted against the dose administered in FIG. 4, FIG. 5, FIG. 6 and FIG. 7 respectively, as shown in the drawing accompanying this specification.

5-hydroxytryptamine = experiment: Biological amine levels by HPLC-ECD after 45 min: 5-hydroxytryptamine; format: in vivo, mice
Protocol: Test Substances: […] Animals: Male Laca mice. Test Procedures: Animals were sacrificed after 45 min of drug administration similar to the time period of behavioral observations. HPLC-ECD detector: Mobile phase—Phosphate buffer: […] • Column—ODS-3 C-18 column (250×4.6 mm I.D.; 5 μm particle size)

[1] = Safety and tolerability of a single dose in healthy human subjects; format: in vivo; conditions: curcumin 1 gm single dose
Text: The secondary aim of study was to monitor the safety and tolerability of a single dose of 1 g curcuminoids when administered in 12 healthy human subjects.

rats = conditions: 1.25, 2.5, 5 and 10 mg/kg P.O., chronic treatment 14 days; cited from earlier work
mice = conditions: cited from earlier work
[2] = system: serotonin (5-HT) as well as dopamine levels; conditions: mice; cited from earlier work
[3] = system: monoamine oxidase enzymes; conditions: mice; cited from earlier work

COc1cc(C=CC(=O)CC(=O)C=Cc2ccc(O)c(OC)c2)ccc1O [Curcumin, 1,7-bis(4-hydroxy-3-methoxyphenyl)-1,6-heptadien-3,5-dione]
Potentiation with sub-effective dose of desipramine (Male Laca mice; 50 mg/kg with desipramine 5 mg/kg): failed to show any potentiation
Potentiated effect with sub-effective dose of tranylcypromine (Male Laca mice; 50 mg/kg with tranylcypromine 5 mg/kg): None
% Decrease in immobility w.r.t saline treated group (Male Laca mice; Table 1, dose 50 mg/kg): 22.55%
Immobility period (in seconds) (Male Laca mice; Table 1, dose 50 mg/kg): 171.8 ± 10.87^ seconds
% Decrease in immobility w.r.t saline treated group (Male Laca mice; Table 2, dose 100 mg/kg): 9.89%
Immobility period (Male Laca mice; Table 2, dose 100 mg/kg): 174.2 ± 15.17 s
% Decrease in immobility w.r.t saline treated group (Male Laca mice; Table 3, dose 200 mg/kg): 31.10%
Immobility period (Male Laca mice; Table 3, dose 200 mg/kg): 133.2 ± 26.82 s
% Decrease in immobility w.r.t saline group (Male Laca mice; Table 4, alone, 50 mg/kg): 12.79%
Immobility period (in seconds) (Male Laca mice; Table 4, alone, 50 mg/kg): 171.8 ± 10.87^ seconds
% Decrease in immobility w.r.t vehicle group (Male Laca mice; Table 5, alone, 50 mg/kg): 24.46%
Immobility period (Male Laca mice; Table 5, alone, 50 mg/kg): 160.33 ± 19.09 s
% Decrease in immobility w.r.t vehicle group (Male Laca mice; Table 6, alone, 50 mg/kg): 15.90%
Immobility period (Male Laca mice; Table 6, alone, 50 mg/kg): 215.50 ± 13.97 s
% Decrease in immobility w.r.t vehicle group (Male Laca mice; Table 7, alone, 50 mg/kg): 4.91%
Immobility period (Male Laca mice; Table 7, alone, 50 mg/kg): 262.25 ± 11.89 s
5-hydroxytryptamine % increase w.r.t Control (5-hydroxytryptamine; dose 100 mg/kg): 6.80%
5-hydroxytryptamine % increase w.r.t Fluoxetine (5-hydroxytryptamine; dose 100 mg/kg vs fluoxetine 10 mg/kg): −21.77%
5-hydroxytryptamine (ng/mg tissue) (5-hydroxytryptamine; dose 100 mg/kg, sacrificed after 45 min, n = 5): 4.24 ± 0.56 ng/mg tissue
Tolerability ([1]; all subjects): well tolerated
Adverse events ([1]; entire course of study): no adverse events reported
Immobility time in the forced swim test (rats): reduced the immobility time
Immobility period (mice): inhibited the immobility period
Serotonin (5-HT) and dopamine levels [2]: increases serotonin (5-HT) as well as dopamine levels
Monoamine oxidase enzymes [3]: inhibited the monoamine oxidase enzymes
